# Experimental data published in patent publication US6380134B1, “N-pyridyl herbicide compounds” (Syngenta Crop Protection, Inc., priority 1998, dated 2002).
# Columns and labels:
# Format in all cases: in vivo
# Set-up in all cases: key: 1=complete damage; 9=no effect; Score figures of 1 to 4 (in particular 1 to 3) signify a good to very good herbicidal action
# Setaria [1] = assay: Post-emergence herbicidal action; conditions: dose 2000 g a.i./ha; sprayed at 4- to 6-leaf stage; evaluated after approximately 18 days; nine-level key (1=complete damage, 9=no effect)
# Protocol: (§1) Monocotyledonous and dicotyledonous test plants are grown in the greenhouse in plastic pots containing standard soil and, in the 4- to 6-leaf stage, sprayed with an aqueous suspension of the test substances of the formula I, prepared from a 25% strength wettable powder (Example F3, b) in accordance with WO 97/34485) or with an emulsion of the test substances of the formula I, prepared from a 25% strength emulsion concentrate (Example F1, c) in accordance with WO 97/34485), corresponding to a dosage of 2 kg/ a.i./ha (500 l of water/ha). The test plants are subsequently grown on in the greenhouse under optimal conditions. After a test period of approximately 18 days, the experiment is evaluated using a nine-level key (1=complete damage, 9=no effect). Score figures of 1 to 4 (in particular 1 to 3) signify a good to very good herbicidal action.
# (§2) Test plants: Lolium, Setaria, Sinapis, Solanum, Stellaria, Ipomea.
# Ipomoea [2] = assay: Post-emergence herbicidal action; conditions: dose 2000 g a.i./ha; sprayed at 4- to 6-leaf stage; evaluated after approximately 18 days; nine-level key (1=complete damage, 9=no effect)
# Protocol: as §1, §2
# Sinapis [3] = assay: Post-emergence herbicidal action; conditions: dose 2000 g a.i./ha; sprayed at 4- to 6-leaf stage; evaluated after approximately 18 days; nine-level key (1=complete damage, 9=no effect)
# Protocol: as §1, §2
# Lolium [4] = assay: Post-emergence herbicidal action; conditions: dose 2000 g a.i./ha; sprayed at 4- to 6-leaf stage; evaluated after approximately 18 days; nine-level key (1=complete damage, 9=no effect)
# Protocol: as §1, §2
# Stellaria [5] = assay: Post-emergence herbicidal action; conditions: dose 2000 g a.i./ha; sprayed at 4- to 6-leaf stage; evaluated after approximately 18 days; nine-level key (1=complete damage, 9=no effect)
# Protocol: as §1, §2
# Solanum [6] = assay: Post-emergence herbicidal action; conditions: dose 2000 g a.i./ha; sprayed at 4- to 6-leaf stage; evaluated after approximately 18 days; nine-level key (1=complete damage, 9=no effect)
# Protocol: as §1, §2
# Setaria [7] = assay: Herbicidal action before plant emergence (pre-emergence action); conditions: 2000 g a.i./ha sprayed immediately after sowing; evaluated after 3 weeks; nine-level key (1=complete damage, 9=no effect)
# Excerpt: (§3) Monocotyledonous and dicotyledonous test plants are sown in standard soil in plastic pots. Immediately after sowing, the test substances are sprayed on as aqueous suspensions (prepared from a 25% strength wettable powder (Example F3, b) in accordance with WO 97/34485) or as emulsions (prepared from a 25% strength emulsion concentrate (Example F1, c) in accordance with WO 97/34485), corresponding to a dosage of 2 kg of a.i./ha (500 l of water/ha). The test plants are subsequently grown in the greenhouse under optimal conditions. After a test period of 3 weeks, the experiment is evaluated using a nine-level key (1=complete damage, 9=no effect). Score figures of 1 to 4 (in particular 1 to 3) signify a good to very good herbicidal action.
# as §2
# Ipomoea [8] = assay: as above; conditions: 2000 g a.i./ha sprayed immediately after sowing; evaluated after 3 weeks; nine-level key (1=complete damage, 9=no effect)
# Excerpt: as §3, §2
# Sinapis [9] = assay: as above; conditions: 2000 g a.i./ha sprayed immediately after sowing; evaluated after 3 weeks; nine-level key (1=complete damage, 9=no effect)
# Excerpt: as §3, §2
# Lolium [10] = assay: as above; conditions: 2000 g a.i./ha sprayed immediately after sowing; evaluated after 3 weeks; nine-level key (1=complete damage, 9=no effect)
# Excerpt: as §3, §2
# Stellaria [11] = assay: as above; conditions: 2000 g a.i./ha sprayed immediately after sowing; evaluated after 3 weeks; nine-level key (1=complete damage, 9=no effect)
# Excerpt: as §3, §2
# Solanum [12] = assay: as above; conditions: 2000 g a.i./ha sprayed immediately after sowing; evaluated after 3 weeks; nine-level key (1=complete damage, 9=no effect)
# Excerpt: as §3, §2
Compound,"Post-emergence action, score, Setaria (Setaria [1])","Post-emergence action, score, Ipomoea (Ipomoea [2])","Post-emergence action, score, Sinapis (Sinapis [3])","Post-emergence action, score, Lolium (Lolium [4])","Post-emergence action, score, Stellaria (Stellaria [5])","Post-emergence action, score, Solanum (Solanum [6])","Pre-emergence action, score, test plant Setaria (Setaria [7])","Pre-emergence action, score, test plant Ipomoea (Ipomoea [8])","Pre-emergence action, score, test plant Sinapis (Sinapis [9])","Pre-emergence action, score, test plant Lolium (Lolium [10])","Pre-emergence action, score, test plant Stellaria (Stellaria [11])","Pre-emergence action, score, test plant Solanum (Solanum [12])"
COc1nc(-n2c(=O)cc(C(F)(F)F)n(C)c2=O)c(F)cc1Cl [1.016],1,1,1,1,1,1,1,1,1,1,1,1
CCOc1nc(-n2c(=O)cc(C(F)(F)F)n(C)c2=O)c(F)cc1Cl [1.017],1,1,1,1,1,1,1,1,1,1,1,1
C=CCOc1nc(-n2c(=O)cc(C(F)(F)F)n(C)c2=O)c(F)cc1Cl [1.020],1,1,1,1,1,1,1,1,1,1,1,1
Cn1c(C(F)(F)F)cc(=O)n(-c2nc(OCOCc3ccccc3)c(Cl)cc2F)c1=O [1.025],3,1,1,1,1,1,1,1,1,3,3,1
Cn1c(C(F)(F)F)cc(=O)n(-c2nc(OCc3ccccc3)c(Cl)cc2F)c1=O [1.026],3,1,1,3,3,1,1,1,1,1,3,1
CCOC(=O)COc1nc(-n2c(=O)cc(C(F)(F)F)n(C)c2=O)c(F)cc1Cl [1.047],1,1,1,3,4,1,1,1,1,5,7,1
COC(=O)C(C)Oc1nc(-n2c(=O)cc(C(F)(F)F)n(C)c2=O)c(F)cc1Cl (centres unmarked) [1.048],1,1,1,1,1,1,1,1,1,1,1,1
Cn1c(C(F)(F)F)cc(=O)n(-c2nc(OCC#N)c(Cl)cc2F)c1=O [1.363],1,1,1,1,1,1,1,7,2,3,1,1
Cn1c(C(F)(F)F)cc(=O)n(-c2nc(OCC(F)(F)F)c(Cl)cc2F)c1=O [1.365],1,1,1,1,1,1,1,1,1,1,1,1
Cn1c(C(F)(F)F)cc(=O)n(-c2nc(OCC(N)=O)c(Cl)cc2F)c1=O [1.366],1,1,1,1,1,1,1,1,1,3,3,1
CCOc1cc(F)c(-n2c(=O)cc(C(F)(F)F)n(C)c2=O)nc1Cl [500.004],,3,2,,,1,,,,,,
C=CCOc1cc(F)c(-n2c(=O)cc(C(F)(F)F)n(C)c2=O)nc1Cl [500.007],,,,,,,4,,,,,1
COC(=O)C(C)Oc1cc(F)c(-n2c(=O)cc(C(F)(F)F)n(C)c2=O)nc1Cl (centres unmarked) [500.029],,1,1,,,1,4,,,,,1
CSC(=O)COc1cc(F)c(-n2c(=O)cc(C(F)(F)F)n(C)c2=O)nc1Cl [500.033],,1,1,,,1,2,,,,,1
COC(=O)C(Oc1cc(Cl)c(-n2c(=O)cc(C(F)(F)F)n(C)c2=O)nc1Cl)c1ccccc1 (centres unmarked) [500.144],,,,,,,2,,,,,1
